Reference: US9896441B2 (Lycera Corporation, priority 2014, dated 2018)
pEC50: −log10 of the molar value.

What was measured:
RORγ-LBD = target: T1, RORγ-LBD (Homo sapiens, UniProt P51449); test: RORγ-Ligand Binding Domain (LBD) TR-FRET Assay; format: biochemical; details: for TR-FRET Assay Max Response: maximum response;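 as to TR-FRET Assay Max Response: 665/615 nm signal ratio set to 100 without ursolic acid or test compound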
T1 construct: made in house; host or cells: SF9 cells (baculovirus); used as diluted lysate
T1 sequence (P51449 269-508 limits assumed): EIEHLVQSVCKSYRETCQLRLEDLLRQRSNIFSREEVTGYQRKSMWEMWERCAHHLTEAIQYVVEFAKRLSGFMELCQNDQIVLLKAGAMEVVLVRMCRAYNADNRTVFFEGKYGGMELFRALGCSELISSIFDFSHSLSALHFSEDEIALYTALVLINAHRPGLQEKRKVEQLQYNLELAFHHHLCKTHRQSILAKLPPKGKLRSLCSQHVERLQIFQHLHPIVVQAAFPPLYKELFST
Outline: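 TR-FRET read-out using a biotin-tagged SRC1 coactivator LXXLL peptide (200 nM final), with the antagonist ursolic acid present at 2 μM final. Receptor is His-tagged LBD expressed in SF9 cells, ~3 nM final in pH 7.0 Tris/KCl/EDTA/DTT/BSA buffer; compounds in 1% DMSO final.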

Gal4-RORγ-LBD = target: T2, Gal4-RORγ-LBD (Homo sapiens, UniProt P51449); test: Gal4-RORγ Luciferase Reporter Assay in HEK-293T Cells; format: cell-based; details: HEK-293 cells; for Gal4-RORγ Assay Max Response: maximum response
T2 construct: expressed in transfected cells
T2 sequence (P51449 269-508 limits assumed): T1 sequence (P51449 269-508 limits assumed)
Outline: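 Max Response was taken as the upper plateau of a 4-parameter logistic fit of luciferase signal, normalized to 100 for wells without ursolic acid or compound. Transiently Gal4-RORγ-LBD/Gal4-luc transfected HEK-293 cells carrying […] ursolic acid were incubated with test compounds (0.2% DMSO) overnight at 37 °C and read with One-Glo.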

[1] = luciferase reporter, with ursolic acid
[2] = luciferase reporter, in presence of ursolic acid
[3] = with 2 μM ursolic acid (RORγ antagonist), highest test concentration 10 μM
[4] = ursolic acid present, luciferase readout

pEC50 (RORγ-LBD; RORγ-LBD TR-FRET)	pEC50 (Gal4-RORγ-LBD; [1])	pEC50 (RORγ-LBD; RORγ-LBD TR-FRET assay)	pEC50 (Gal4-RORγ-LBD; [2])	pEC50 (RORγ-LBD; [3])	pEC50 (Gal4-RORγ-LBD; [4])	Structure (SMILES)	TR-FRET Assay Max Response (RORγ-LBD; RORγ-LBD TR-FRET assay)	Gal4-RORγ Assay Max Response (Gal4-RORγ-LBD; [2])
> 6.30	5.30 to 6.30					O=C(O)CC[C@H]1CN(S(=O)(=O)c2cccc(C(F)(F)F)c2)c2cc(C=C3CCC(O)CC3)ccc2O1 (stereo partly drawn) [Example 94]		
		> 6.30	> 6.30			C/C(=C\c1ccc2c(c1)N(S(=O)(=O)c1cccc(C(F)(F)F)c1)C[C@H](CCC(C)(C)O)O2)c1c(F)cccc1Cl [Example 121B, (S,E)-4-(6-(2-(2-chloro-6-fluorophenyl)prop-1-en-1-yl)-4-((3-(trifluoromethyl)-phenyl)sulfonyl)-3,4-dihydro-2H-benzo[b][1,4]oxazin-2-yl)-2-methylbutan-2-ol]	** (a value in the range of greater than 90 to 150)	** (a value in the range of greater than 90 to 150)
> 6.30	5.30 to 6.30					COC(=O)CC[C@H]1CN(S(=O)(=O)c2cccc(C(C)(F)F)c2)c2cc(/C=C/c3c(Cl)cccc3C(F)(F)F)ccc2O1 [Example 83, Methyl (S,E)-3-(6-(2-chloro-6-(trifluoromethyl)styryl)-4-((3-(1,1-difluoroethyl)phenyl)sulfonyl)-3,4-dihydro-2H-benzo[b][1,4]oxazin-2-yl)propanoate]		
		> 6.30	5.30 to 6.30			C/C(=C\c1ccc2c(c1)N(S(=O)(=O)c1cccc(C(F)(F)F)c1)[C@H](C)[C@H](O)C2)c1c(F)cccc1Cl (racemic) [Example 171, (2R,3R)-7-((E)-2-(2-Chloro-6-fluorophenyl)prop-1-en-1-yl)-2-methyl-1-((3-(trifluoromethyl)phenyl)sulfonyl)-1,2,3,4-tetrahydroquinolin-3-ol]	*** (a value in the range of greater than 150 to 200)	** (a value in the range of greater than 90 to 150)
> 6.30	> 6.30					CCOc1ncc(C(F)(F)F)cc1S(=O)(=O)N1C[C@H](CCC(=O)O)Oc2ccc(/C=C/c3c(OC)cccc3C(F)(F)F)cc21 [Example 89ET, (S,E)-3-(4-((2-ethoxy-5-(trifluoromethyl)pyridin-3-yl)sulfonyl)-6-(2-methoxy-6-(trifluoromethyl)styryl)-3,4-dihydro-2H-benzo[b][1,4]-oxazin-2-yl)propanoic acid]		
> 6.30	5.30 to 6.30					C[C@@H]1C/C(=C\c2ccc3c(c2)N(S(=O)(=O)c2cc(C(F)(F)F)cnc2OCCO)C[C@H](CCC(=O)O)O3)C[C@H](C)C1 [Example 95AA, 3-((S)-6-((E)-((3R,5S)-3,5-dimethylcyclohexylidene)-methyl)-4-((2-(2-hydroxy-ethoxy)-5-(trifluoromethyl)-pyridin-3-yl)sulfonyl)-3,4-dihydro-2H-benzo[b][1,4]oxazin-2-yl)propanoic acid]		
> 6.30	5.30 to 6.30					COC(=O)CC[C@H]1CN(S(=O)(=O)c2cccc(C(F)(F)F)c2)c2cc(/C=C(\C)c3ccccc3)ccc2O1 [Example 86AB, (S,E)-methyl 3-(6-(2-phenylprop-1-en-1-yl)-4-((3-(trifluoromethyl)-phenyl)sulfonyl)-3,4-dihydro-2H-benzo[b][1,4]oxazin-2-yl)propanoate]		
> 6.30	> 6.30					COC(=O)CC[C@H]1CN(S(=O)(=O)c2cccc(OC(F)F)c2)c2cc(/C=C/c3c(Cl)cccc3Cl)ccc2O1 [Example 89CS, methyl (S,E)-3-(6-(2,6-dichlorostyryl)-4-((3-(difluoromethoxy)phenyl)sulfonyl)-3,4-dihydro-2H-benzo[b][1,4]-oxazin-2-yl)propanoate]		
> 6.30	5.30 to 6.30					COC(=O)CC[C@H]1CN(S(=O)(=O)c2cncc(C(F)(F)F)c2)c2cc(/C=C(\C)c3c(F)cccc3Cl)ccc2O1 [Example 74, Methyl (S,E)-3-(6-(2-(2-chloro-6-fluorophenyl)prop-1-en-1-yl)-4-((5-(trifluoromethyl)pyridin-3-yl)sulfonyl)-3,4-dihydro-2H-benzo[b][1,4]oxazin-2-yl)propanoate]		
				> 6.30	5.30 to 6.30	O=C(O)C1Cc2ccc(OCc3c(F)cccc3Cl)cc2N(S(=O)(=O)c2cccc(C(F)(F)F)c2)C1 (stereo not drawn)		
		> 6.30	5.30 to 6.30			C/C(=C\c1ccc2c(c1)N(S(=O)(=O)c1cccc(C(F)(F)F)c1)C[C@H](NC(=O)C(C)(C)O)C2)c1c(F)cccc1Cl [Example 116F, (R,E)-N-(7-(2-(2-chloro-6-fluorophenyl)prop-1-en-1-yl)-1-((3-(trifluoromethyl)-phenyl)sulfonyl)-1,2,3,4-tetrahydroquinolin-3-yl)-2-hydroxy-2-methylpropanamide]	*** (a value in the range of greater than 150 to 200)	* (a value in the range of 30 to 90)
< 5.00	< 5.00					O=C(O)CC[C@H]1CN(S(=O)(=O)c2cccc(C(F)(F)F)c2)c2cc(/C=C/c3ccncn3)ccc2O1 [Example 89CC, (S,E)-3-(6-(2-(pyrimidin-4-yl)vinyl)-4-((3-(trifluoromethyl)-phenyl)sulfonyl)-3,4-dihydro-2H-benzo[b][1,4]oxazin-2-yl)propanoic acid]		
		> 6.30	> 6.30			C/C(=C\c1ccc2c(c1)N(S(=O)(=O)c1cccc(C(F)(F)F)c1)C[C@H](CCC(=O)N1C[C@@H](C)O[C@@H](C)C1)O2)c1c(F)cccc1Cl [Example 127E, 3-((S)-6-((E)-2-(2-chloro-6-fluorophenyl)prop-1-en-1-yl)-4-((3-(trifluoromethyl)phenyl)sulfonyl)-3,4-dihydro-2H-benzo[b][1,4]oxazin-2-yl)-1-((2S,6R)-2,6-dimethylmorpholino)propan-1-one]	*** (a value in the range of greater than 150 to 200)	* (a value in the range of 30 to 90)
		> 6.30	> 6.30			C/C(=C\c1ccc2c(c1)N(S(=O)(=O)c1cccc(C(F)(F)F)c1)C[C@H](CCN1CCS(=O)(=O)CC1)O2)c1c(F)cccc1Cl [Example 119G, (S,E)-4-(2-(6-(2-(2-chloro-6-fluorophenyl)prop-1-en-1-yl)-4-((3-(trifluoromethyl)phenyl)sulfonyl)-3,4-dihydro-2H-benzo[b][1,4]oxazin-2-yl)ethyl)thiomorpholine 1,1-dioxide]	*** (a value in the range of greater than 150 to 200)	* (a value in the range of 30 to 90)
				> 6.30	< 5.00	CCOc1nn(CC)cc1S(=O)(=O)N1CC(C(=O)O)Cc2ccc(OCc3c(F)cccc3Cl)cc21 (stereo not drawn)		
		> 6.30	> 6.30			C/C(=C\c1ccc2c(c1)N(S(=O)(=O)c1cccc(C(F)(F)F)c1)[C@H](C)[C@H](C(=O)O)C2)c1c(F)cccc1Cl [Example 142, (2R,3R)-7-((E)-2-(2-Chloro-6-fluorophenyl)prop-1-en-1-yl)-2-methyl-1-((3-(trifluoromethyl)phenyl)sulfonyl)-1,2,3,4-tetrahydroquinoline-3-carboxylate]	** (a value in the range of greater than 90 to 150)	** (a value in the range of greater than 90 to 150)
		> 6.30	> 6.30			COc1cc(S(=O)(=O)N2c3cc(/C=C(\C)c4c(F)cccc4Cl)ccc3O[C@@H](CNC(C)=O)[C@H]2C)ccc1F [Example 137]	**** (a value greater than 200)	** (a value in the range of greater than 90 to 150)
> 6.30	> 6.30					CCOc1ncc(C(F)(F)F)cc1S(=O)(=O)N1C[C@H](CCC(=O)O)Oc2ccc(/C=C/c3c(Cl)cccc3OC)cc21 [Example 89FA, (S,E)-3-(6-(2-chloro-6-methoxystyryl)-4-((2-ethoxy-5-(trifluoromethyl)pyridin-3-yl)sulfonyl)-3,4-dihydro-2H-benzo[b][1,4]oxazin-2-yl)propanoic acid]		
		> 6.30	< 5.00			C/C(=C\c1ccc2c(c1)N(S(=O)(=O)c1cccc(C(F)(F)F)c1)[C@H](C)[C@H](NC(=O)N(C)C)C2)c1c(F)cccc1Cl [Example 146, 3-((2R,3R)-7-((E)-2-(2-Chloro-6-fluorophenyl)prop-1-en-1-yl)-2-methyl-1-((3-(trifluoromethyl)phenyl)sulfonyl)-1,2,3,4-tetrahydroquinolin-3-yl)-1,1-dimethylurea]	** (a value in the range of greater than 90 to 150)	
		> 6.30	> 6.30			CCn1cc(S(=O)(=O)N2C[C@H](CCC(C)(C)O)Oc3ccc(/C=C(\C)c4c(F)cccc4Cl)cc32)c(OCCO)n1 [Example 121C, (S,E)-4-(6-(2-(2-chloro-6-fluorophenyl)prop-1-en-1-yl)-4-((1-ethyl-3-(2-hydroxyethoxy)-1H-pyrazol-4-yl)sulfonyl)-3,4-dihydro-2H-benzo[b][1,4]oxazin-2-yl)-2-methylbutan-2-ol]	**** (a value greater than 200)	** (a value in the range of greater than 90 to 150)
